From article PMC11597885, “Enhancing Antileishmanial Activity of Amidoxime-Based Compounds Bearing a 4,5-Dihydrofuran Scaffold: In Vitro Screening Against Leishmania amazonensis” (Molecules, 2024)
Read-outs that look alike come from different tables or passages of the source.

Key:
[1] = system: Leishmania amazonensis promastigotes, strain MHOM/BR/77/LTB0016; test: Antipromastigote activity assay (resazurin); assay type: cell-based; details: 72 h, mean ± SD from three independent experiments, read-out: Activity IC50 (µM/72 h), promastigote form of L. amazonensis
Protocol: Initially, compounds 14 to 25 were subjected to preliminary in vitro screening against Leishmania amazonensis promastigotes, strain MHOM/BR/77/LTB0016. The 50% growth inhibitory concentration (IC50) was measured after 72 h of cultivation with each compound using a resazurin assay conducted in independent triplicate experiments. […] Leishmania amazonensis (MHOM/BR/77/LTB0016) was cultured as promastigotes at 26 °C using Schneider’s insect medium (Sigma-Aldrich, St Louis, MO, USA), supplemented with 10% heat-inactivated fetal calf serum (HIFCS), 100 μg/mL streptomycin, and 100 U/mL penicillin. The parasites were sustained up to the 10th passage, after which fresh cultures were derived from infected host animals. L. amazonensis promastigotes were cultured in Schneider’s insect medium with 10% HIFCS, as described above, with or without various concentrations of test substances. The initial cell density was 1.0 × 10^6 cells/mL, and the culture was kept at 26 °C for 72 h. Resazurin reduction was used to evaluate the cell viability. The concentration required to inhibit 50% of the promastigote activity (IC50) was calculated using logarithmic regression analysis via GraphPrism 5 software.

[2] = Cytotoxicity assay (resazurin); assay type: cell-based; details: mouse, murine peritoneal macrophages, 0–200 µM tested, mean ± SD from three independent experiments
Protocol: Murine peritoneal macrophages were collected by flushing the peritoneal cavity with 5 mL of RPMI 1640 medium containing 10% HIFCS, 2 mM L-glutamine, 1 mM pyruvate, 100 μg/mL streptomycin, and 100 U/mL penicillin. The macrophage suspension was adjusted to 1.0 × 10^6 cells/mL and then plated in triplicate in 96-well plates (Falcon Co., Franklin Lakes, NJ, USA). Cultures were incubated at 37 °C in a 5% CO2 environment for 1 h. Nonadherent cells were subsequently removed, and the remaining cells were exposed to varying concentrations of test compounds (0–200 μM) for 72 h. Viability was assessed using a resazurin assay, and the concentration that caused 50% cytotoxicity (CC50) was determined using logarithmic regression analysis with GraphPrism 5 software.

[3] = system: intracellular amastigote form of Leishmania amazonensis; test: Antiamastigote activity assay (infected peritoneal macrophages, infection index); assay type: cell-based; details: Macrophage, 72 h, L. amazonensis in murine macrophages, mean ± SD from three independent experiments, read-out: Intracellular Amastigotes IC50 (µM/72 h)
Protocol: Resident peritoneal macrophages were seeded in RPMI medium (Sigma-Aldrich) at 1 × 10^6 cells/mL (0.4 mL/well) on Lab-Tek eight-chamber slides (Nunc) and incubated at 37 °C in 5% CO2 for 1 h. After this period, nonadherent cells were removed, and the adherent macrophages were co-cultured with L. amazonensis promastigotes at a 5:1 parasite-to-cell ratio. After 4 h, the monolayers were washed to eliminate free parasites. Cells were then treated with different concentrations of the compounds and incubated for 72 h at 37 °C in 5% CO2. Following incubation, the slides were stained using the Instant Prov hematological dye (Newprov, Curitiba, Brazil), and antileishmanial activity was assessed microscopically. Amastigote numbers were determined by counting at least 100 macrophages per sample, and the results were expressed as an infection index (II), calculated as: II = (percentage of infected cells) × (number of amastigotes/total macrophages). Dose–response curves for the antiamastigote activity were generated using nonlinear regression in GraphPad Prism 5.0, and IC50 values were calculated.

[4] = system: intracellular amastigote form of Leishmania amazonensis; design: method as in PMID 21555166, PMID 20833057; details: previously reported HIT; read-out: IC50 for the intracellular amastigote form of L. amazonensis; cited from earlier work

Row | Structure (SMILES) | IC50 [1] [µM] | IC50 [3] [µM] | CC50 at 72 h [2] [µM] | IC50 [4] [µM]
1 | CC1(Cc2ccccc2)CC(C(=O)Nc2ccc(Br)cn2)=C(c2ccc(C(N)=NO)cc2)O1 (stereo not shown) [Compound 14, 5-Benzyl-N-(5-bromopyridin-2-yl)-2-(4-(N′-hydroxycarbamimidoyl)phenyl)-5-methyl-4,5-dihydrofuran-3-carboxamide] | 15 ± 1.03 | 0.5 ± 0.15 | 171.5 ± 1.19 | –
2 | Cc1cc(NC(=O)C2=C(c3ccc(C(N)=NO)cc3)OC(C)(Cc3ccccc3)C2)nn1C (stereo not shown) [Compound 25, 5-Benzyl-N-(1,5-dimethyl-1H-pyrazol-3-yl)-2-(4-(N′-hydroxycarbamimidoyl)phenyl)-5-methyl-4,5-dihydrofuran-3-carboxamide] | 52.5 ± 1.03 | – | – | –
3 | CC1(Cc2ccccc2)CC(C(=O)Nc2cccnn2)=C(c2ccc(C(N)=NO)cc2)O1 (stereo not shown) [Compound 22, 5-Benzyl-2-(4-(N′-hydroxycarbamimidoyl)phenyl)-5-methyl-N-(pyridazin-3-yl)-4,5-dihydrofuran-3-carboxamide] | 29.9 ± 1.02 | – | – | –
4 | CC1(Cc2ccccc2)CC(C(=O)Nc2ccc(Cl)nn2)=C(c2ccc(C(N)=NO)cc2)O1 (stereo not shown) [Compound 23, 5-Benzyl-N-(6-chloropyridazin-3-yl)-2-(4-(N′-hydroxycarbamimidoyl)phenyl)-5-methyl-4,5-dihydrofuran-3-carboxamide] | 36.4 ± 1.03 | – | – | –
5 | CC1(Cc2ccccc2)CC(S(=O)(=O)c2ccc(F)cc2)=C(c2ccc(C(N)=NO)cc2)O1 (stereo not shown) [HIT, 4-(5-benzyl-3-((4-fluorophenyl)sulfonyl)-5-methyl-4,5-dihydrofuran-2-yl)-N′-hydroxybenzimidamide] | – | – | – | 7.9 ± 1.1
6 | Cc1ccc(NC(=O)C2=C(c3ccc(C(N)=NO)cc3)OC(C)(Cc3ccccc3)C2)nc1 (stereo not shown) [Compound 16, 5-Benzyl-2-(4-(N′-hydroxycarbamimidoyl)phenyl)-5-methyl-N-(5-methylpyridin-2-yl)-4,5-dihydrofuran-3-carboxamide] | 17 ± 1.02 | 0.3 ± 0.07 | > 200 | –
7 | CC1(Cc2ccccc2)CC(C(=O)Nc2ccc(F)cc2)=C(c2ccc(C(N)=NO)cc2)O1 (stereo not shown) [Compound 20, 5-Benzyl-N-(4-fluorophenyl)-2-(4-(N′-hydroxycarbamimidoyl)phenyl)-5-methyl-4,5-dihydrofuran-3-carboxamide] | 23.8 ± 1.02 | – | – | –

Continued by falling IC50 [1], values first:

Row | IC50 [1] [µM] | IC50 [3] [µM] | Structure (SMILES) | CC50 at 72 h [2] [µM] | IC50 [4] [µM]
8 | 39.4 ± 1.02 | – | CC1(Cc2ccccc2)CC(C(=O)Nc2cnccn2)=C(c2ccc(C(N)=NO)cc2)O1 (stereo not shown) [Compound 24, 5-Benzyl-2-(4-(N′-hydroxycarbamimidoyl)phenyl)-5-methyl-N-(pyrazin-2-yl)-4,5-dihydrofuran-3-carboxamide] | – | –
9 | 26.4 ± 1.02 | – | CC1(Cc2ccccc2)CC(C(=O)NCc2ccc(C(F)(F)F)cc2)=C(c2ccc(C(N)=NO)cc2)O1 (stereo not shown) [Compound 21, 5-Benzyl-2-(4-(N′-hydroxycarbamimidoyl)phenyl)-5-methyl-N-(4-(trifluoromethyl)benzyl)-4,5-dihydrofuran-3-carboxamide] | – | –
10 | 23.8 ± 1.02 | – | CC1(Cc2ccccc2)CC(C(=O)Nc2ccccc2)=C(c2ccc(C(N)=NO)cc2)O1 (stereo not shown) [Compound 19, 5-Benzyl-2-(4-(N′-hydroxycarbamimidoyl)phenyl)-5-methyl-N-phenyl-4,5-dihydrofuran-3-carboxamide] | – | –
11 | 23.5 ± 1.04 | – | CC1(Cc2ccccc2)CC(C(=O)Nc2ccncc2)=C(c2ccc(C(N)=NO)cc2)O1 (stereo not shown) [Compound 18, 5-Benzyl-2-(4-(N′-hydroxycarbamimidoyl)phenyl)-5-methyl-N-(pyridin-4-yl)-4,5-dihydrofuran-3-carboxamide] | – | –
12 | 22.4 ± 1.02 | – | CC1(Cc2ccccc2)CC(C(=O)Nc2ccccn2)=C(c2ccc(C(N)=NO)cc2)O1 (stereo not shown) [Compound 17, 5-Benzyl-2-(4-(N′-hydroxycarbamimidoyl)phenyl)-5-methyl-N-(pyridin-2-yl)-4,5-dihydrofuran-3-carboxamide] | – | –
13 | 16 ± 1.03 | 0.6 ± 0.2 | CC1(Cc2ccccc2)CC(C(=O)Nc2ccc(Cl)cn2)=C(c2ccc(C(N)=NO)cc2)O1 (stereo not shown) [Compound 15, 5-Benzyl-N-(5-chloropyridin-2-yl)-2-(4-(N′-hydroxycarbamimidoyl)phenyl)-5-methyl-4,5-dihydrofuran-3-carboxamide] | > 200 | –
